# Measured values as given in patent publication US10363239B2, “Method for inhibiting growth of cancer cells” (Pain Therapeutics, Inc., priority 2013, dated 2019).
# Experiments:
# Type in all cases: cell-based, human
# [1] = test system: GTP-bound K-ras in BxPc3 cells; assay: Active K-ras (GTP-bound K-ras) Raf1 RBD pull-down assay; conditions: 0.1, 0.5, 1 and 5 nM; 4-day treatment
# Experimental: (§1) FIGS. 31A and 31B illustrate the effects of illustrative Compound C0105 on levels of active K-ras (GTP-bound K-ras), assessed using the agarose bead-bound Raf1 RBD pull-down assay in melanoma, two different pancreatic cancerous cell lines (MiaPaCa2 and BxPc3) and a glioblastoma cell line (U87). The cells were treated (contacted) with zero (vehicle), 0.1, 0.5, 1 and 5 nM Compound C0105 as previously discussed. The thus obtained GTP-bound K-ras was subjected to Western blotting using anti-ras antibodies for identification, the blot densities determined and statistically analyzed as discussed previously.
# (§2) In a separate series of studies, the level of active K-RAS (GTP-bound K-RAS) was determined by precipitation using Raf RBD-conjugated agarose beads from 100 μg of lysates of cancer cells (prepared as described above) following 4-day treatment with varying concentrations of Compound C0105. To ascertain even loading, actin in the cell lysates was immunoprecipitated with goat anti-actin. The precipitates were collected by centrifugation, washed and the active K-RAS and actin eluted by boiling for 5 min in 1×SDS-PAGE. The levels of active K-RAS and actin in 50 μg of cell lysates were size-fractionated on 12% SDS-PAGE, electrophorectically transferred to nitrocellulose membranes and determined by Western blotting with specific monoclonal antibodies against K-RAS and actin.
# [2] = test system: GTP-bound K-ras in MiaPaCa2 cells; assay: as above; conditions: 0.1, 0.5, 1 and 5 nM; 4-day treatment
# Experimental: as §1, §2
# [3] = test system: GTP-bound K-ras in glioblastoma cell line (U87); assay: as above; conditions: 0.1, 0.5, 1 and 5 nM; 4-day treatment
# Experimental: as §1, §2
# [4] = test system: pancreatic cancer MiaPaCa2 cells; assay: [3H]glucose uptake; conditions: 0.1-5 nM; 4 days
# Experimental: (§3) FIG. 1A through FIG. 1M illustrate the effects of various FLNA-binding compounds on glucose uptake in glioblastoma, melanoma, breast and pancreatic cancer cell lines, along with appropriate non-cancerous primary cell controls. Cells were grown in the absence or presence of 0.1-5 nM indicated compounds for 4 days. Following brief washes with PBS, cells were serum-deprived for 4 hours and then incubated in oxygenated Kreb's Ringer containing 0.1 μCi [^3H]glucose for 2 hours under constant oxygenation. The reaction was terminated by removal of the incubation medium, and cells were washed and scraped off to determine the amounts of [^3H]glucose in cells by scintillation spectrometry. […] N=5-6. […] . […] . To determine the effect of Compound C0105 on glucose utilization, the cancer and primary normal cells were plated extremely thinly (10%). Once cells attached, Compound C0105 was added at 0.1, 0.5, 1 or 5 nM in the medium twice daily (6 hours apart) for 4 days. The cells were serum-deprived (glucose deprived) for 2 hours. Cells were then rinsed with 1 ml PBS and glucose uptake was assessed by contacting the cells with [^3H]glucose (0.01 uCi/l ml) in Kreb's Ringer for 2 hours. Cells were then rinsed with 1 ml PBS 3 times, scraped off and their glucose content counted by liquid scintillation spectrophotometry.
# [5] = test system: breast cancer HTB-22 cells; assay: [3H]glucose uptake; conditions: 0.1-5 nM; 4 days
# Experimental: as §3
# [6] = test system: pS2152FLNA, FLNA-associated PTEN and PP2A in pancreatic cancer MiaPaCa2 cells; assay: pS2152FLNA and FLNA-associated PTEN and PP2A in anti-FLNA immunoprecipitate (Western blotting); conditions: 0.1-5 nM; 4 days
# Experimental: The effect of contact with Compound C0105 on the levels of pS^2152FLNA and FLNA-associated phosphatases, PTEN and PP2A subclasses was determined in MiaPaCa2 and HPECs. Cells were contacted with vehicle and 0.1-5 nM Compound C0105 for 4 days. Cells were washed, solubilized and the cell lysate derived was immunoprecipitated with anti-FLNA. The levels of […] and FLNA-associated phosphatases, PTEN and PP2A subclasses in the anti-FLNA immunoprecipitate were determined by Western blotting. The density of protein bands was quantified by densitometric scan. […] Data are expressed as mean±S.E.M. of ratios (FIGS. 27C, 27E and 27G) and percentage inhibition (FIGS. 27D, 27F and 27H). […] N=4. **p<0.05, *p<0.01 compared to vehicle (open bars). […]
# (§4) The cell lysates were diluted 5-fold with immunoprecipitation buffer and immunoprecipitated with anti-FLNA, -Akt, -mTOR and -ERK2 as described previously [Talbot et al., J Clin Inv 122(4):1-23 (2012); Wang et al., J Neurosci 32(29):9773-9784 (2012)]. The levels of FLNA linkages, activated phosphorylated Akt (pS^473 and pT^308), phosphorylated mTOR (pS^2448) and phosphorylated ERK2 (pY/pT) were determined in anti-FLNA, -Akt, -mTOR and -ERK2 immunoprecipitates by Western blotting with appropriate antibodies directed against PTEN, PP2A, K-RAS, ras-GAP (FLNA linkages), pS^473Akt, pT^308Akt, pS^2448mTOR and pY/pT ERK2 (activation of Akt, mTOR and ERK2).
# [7] = test system: FLNA-bound K-ras and ras-GAP in BxPc3 cells; assay: FLNA-bound K-ras and ras-GAP (immunoprecipitation, Western blotting); conditions: 0.1, 0.5, 1 and 5 nM
# Experimental: (§5) Thus, melanoma, two different pancreatic cancerous cell lines (MiaPaCa2 and BxPc3) and a glioblastoma cell line (U87) were treated with zero (vehicle), 0.1, 0.5, 1 and 5 nM Compound C0105 as previously discussed, and FLNA-bound K-ras and ras-GAP were immunoprecipitated, separated by Western blotting and the blot densities determined as discussed previously.
# (§6) To study the effect of Compound C0105 on pS^2152FLNA levels, FLNA linkages to key regulators including protein phosphatases as well as activated Akt (pS^473-, pT^308-Akt), mTOR ([…]) and ERK (pY/pT-ERK) levels, the cancer and normal cells were cultured to approximately 90% confluency and treated with vehicle or varying concentrations of Compound C0105. The cells were washed with warm phosphate-buffered saline (PBS), pH 7.2, dissociated, homogenized by sonication and solubilized using 0.5% NP-40 (nonoxynol 40), 0.2% sodium cholate and 0.5% digitonin for 1 hour at 4° C.
# as §4
# [8] = test system: FLNA-bound K-ras and ras-GAP in MiaPaCa2 cells; assay: as above; conditions: 0.1, 0.5, 1 and 5 nM
# Experimental: as §5, §6, §4
# [9] = test system: FLNA-bound K-ras and ras-GAP in melanoma cells; assay: as above; conditions: 0.1, 0.5, 1 and 5 nM
# Experimental: as §5, §6, §4
# [10] = test system: FLNA-bound K-ras and ras-GAP in glioblastoma cell line (U87); assay: as above; conditions: 0.1, 0.5, 1 and 5 nM
# Experimental: as §5, §6, §4
compound,measurement,setting,value
CN1CCC2(CC1)NCC(=O)N2Cc1ccccc1 [Compound C0105],GTP-bound K-ras (active K-ras) level,[1],reduced GTP-bound K-ras
same,GTP-bound K-ras (active K-ras) level,[2],reduced GTP-bound K-ras
same,GTP-bound K-ras (active K-ras) level,[3],reduced GTP-bound K-ras
same,Basal glucose uptake,[4],dose-dependent inhibition of basal glucose uptake
same,Basal glucose uptake,[5],dose-dependent inhibition of basal glucose uptake
same,FLNA-associated PTEN and PP2A levels,[6],increases FLNA-associated PTEN and PP2A levels
same,pS2152FLNA level,[6],reduces pS^2152FLNA
same,FLNA-bound K-ras,[7],reduces K-ras
same,FLNA-bound Ras-GAP,[7],increases Ras-GAP
same,FLNA-bound K-ras,[8],reduces K-ras
same,FLNA-bound Ras-GAP,[8],increases Ras-GAP
same,FLNA-bound K-ras,[9],reduces K-ras
same,FLNA-bound Ras-GAP,[9],increases Ras-GAP
same,FLNA-bound K-ras,[10],reduces K-ras
same,FLNA-bound Ras-GAP,[10],increases Ras-GAP
